Results: patent US10988459B2 (priority 2015, dated 2021)

Target: human RIP1 kinase domain (2-375) (Homo sapiens (Human), UniProt Q13546)
Assay: biochemical
Format: biochemical
Conditions: Table 1; apparent Ki (Morrison tight-binding fit); 50 nM RIP1 kinase domain, 50 uM ATP, 2 hours incubation; read-out: RIP1 Ki
In short: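 50 nM purified kinase domain from baculovirus-infected insect cells, incubated 2 h with compound in 50 mM Hepes pH 7.5, 30 mM MgCl2, 1 mM DTT, 50 uM ATP, 0.002% Brij-35, 0.5% DMSO. ADP formation read by Transcreener FP at 633 nm excitation. Ki^app fitted with the Morrison tight-binding equation.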

human RIP1 kinase domain (2-375), sequence (Q13546 2-375): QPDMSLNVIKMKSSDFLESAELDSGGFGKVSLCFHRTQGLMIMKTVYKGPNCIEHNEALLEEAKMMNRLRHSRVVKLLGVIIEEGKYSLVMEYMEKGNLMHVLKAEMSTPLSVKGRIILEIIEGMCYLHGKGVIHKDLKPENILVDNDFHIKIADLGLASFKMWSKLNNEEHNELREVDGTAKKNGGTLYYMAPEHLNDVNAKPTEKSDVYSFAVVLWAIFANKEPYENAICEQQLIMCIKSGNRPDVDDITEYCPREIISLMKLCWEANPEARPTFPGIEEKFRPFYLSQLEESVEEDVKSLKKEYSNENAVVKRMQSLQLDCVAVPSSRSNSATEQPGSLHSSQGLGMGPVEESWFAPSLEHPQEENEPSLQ

SMILES	Ki
Cc1cnn2c1N(C)C(=O)C(NC(=O)c1nnc(Cc3ccccc3)[nH]1)CC2 (stereo not drawn) [Example 31, 5-benzyl-N-(3,4-dimethyl-5-oxo-7,8-dihydro-6H-pyrazolo[1,5-a][1,3]diazepin-6-yl)-4H-1,2,4-triazole-3-carboxamide]	0.14 µM

Same assay, conditions: Table 3; apparent Ki (Morrison tight-binding fit); 50 nM RIP1 kinase domain, 50 uM ATP, 2 hours incubation; read-out: Ki

SMILES	Ki
CN1C(=O)[C@@H](NC(=O)c2n[nH]c3ccc(Cl)cc23)COc2ccccc21 [Example 338, (S)-5-chloro-N-(5-methyl-4-oxo-2,3,4,5-tetrahydrobenzo[b][1,4]oxazepin-3-yl)-1H-indazole-3-carboxamide]	0.021 µM

Same assay, conditions: Table 5; apparent Ki (Morrison tight-binding fit); 50 nM RIP1 kinase domain, 50 uM ATP, 2 hours incubation; read-out: Ki

SMILES	Ki
COCCc1cc2n(n1)CC[C@H](NC(=O)c1ncn(Cc3ccccc3F)n1)C(=O)N2C [Example 768]	0.051 µM
C[C@@]1(C(F)(F)F)OCc2cnc(C(=O)N[C@H]3CCc4cc(F)cc(F)c4NC3=O)cc21 [Example 748, (1R)-1-methyl-N-[(3S)-7,9-difluoro-2-oxo-1,3,4,5-tetrahydro-1-benzazepin-3-yl]-1-(trifluoromethyl)-3H-furo[3,4-c]pyridine-6-carboxamide]	0.014 µM
CN1C(=O)[C@@H](NC(=O)c2ncn(Cc3ccccc3)n2)CCn2nc(CCCN3CCC(F)(F)C3)cc21 [Example 739, 1-benzyl-N-[(6S)-2-[3-(3,3-difluoropyrrolidin-1-yl)propyl]-4-methyl-5-oxo-7,8-dihydro-6H-pyrazolo[1,5-a][1,3]diazepin-6-yl]-1,2,4-triazole-3-carboxamide]	0.036 µM
CN1C(=O)[C@@H](NC(=O)c2cc3c(cn2)cnn3CCC(F)F)COc2ccccc21 [Example 711, 1-(3,3-difluoropropyl)-N-[(3S)-5-methyl-4-oxo-2,3-dihydro-1,5-benzoxazepin-3-yl]pyrazolo[4,3-c]pyridine-6-carboxamide]	0.073 µM

Same assay, conditions: human RIP1 kinase domain (2-375), 50 uM ATP, 2 hours incubation, Transcreener ADP assay; read-out: RIP1 Ki

SMILES	Ki
CN1C(=O)[C@@H](NC(=O)c2n[nH]c3c2CC(C)(c2ccccc2)OC3)COc2ccccc21 (stereo partly drawn) [Example 212, 5-methyl-N—((S)-5-methyl-4-oxo-2,3,4,5-tetrahydrobenzo[b][1,4]oxazepin-3-yl)-5-phenyl-1,4,5,7-tetrahydropyrano[3,4-c]pyrazole-3-carboxamide]	0.573 µM
CN1C(=O)C(NC(=O)c2ncn(Cc3ccccc3)n2)CCn2nc3c(c21)CCCC3 (stereo not drawn) [Example 136, 1-benzyl-N-(1-methyl-2-oxo-2,3,4,5,8,9,10,11-octahydro-1H-[1,3]diazepino[1,2-b]indazol-3-yl)-1H-1,2,4-triazole-3-carboxamide]	0.11 µM
CN1C(=O)[C@@H](NC(=O)c2nnc3ccc(C4CC4)cn23)COc2ccccc21 [Example 84, (S)-6-cyclopropyl-N-(5-methyl-4-oxo-2,3,4,5-tetrahydrobenzo[b][1,4]oxazepin-3-yl)-[1,2,4]triazolo[4,3-a]pyridine-3-carboxamide]	1.4 µM
CN1C(=O)C(NC(=O)c2nnc(Cc3ccccc3)[nH]2)CCCn2nccc21 (stereo not drawn) [Example 93, 5-benzyl-N-(4-methyl-5-oxo-4,5,6,7,8,9-hexahydropyrazolo[1,5-a][1,3]diazocin-6-yl)-4H-1,2,4-triazole-3-carboxamide]	0.381 µM

Same assay, conditions: human RIP1 kinase domain (2-375), Transcreener ADP assay, 50 uM ATP, 2 hours incubation; read-out: RIP1 Ki

SMILES	Ki
CN1C(=O)C(NC(=O)c2ncn(CC3CCCC3)n2)CCn2nc(C3CC3)cc21 (stereo not drawn) [Example 261, 1-(cyclopentylmethyl)-N-(2-cyclopropyl-4-methyl-5-oxo-5,6,7,8-tetrahydro-4H-pyrazolo[1,5-a][1,3]diazepin-6-yl)-1H-1,2,4-triazole-3-carboxamide]	0.104 µM
Cc1cc2n(n1)CC[C@H](NC(=O)c1ncn(CC3CC3(F)F)n1)C(=O)N2C (stereo partly drawn) [Example 262, 1-((2,2-difluorocyclopropyl)methyl)-N—((S)-2,4-dimethyl-5-oxo-5,6,7,8-tetrahydro-4H-pyrazolo[1,5-a][1,3]diazepin-6-yl)-1H-1,2,4-triazole-3-carboxamide]	0.511 µM
CN1C(=O)[C@@H](NC(=O)c2ncn(Cc3cccc(Cl)c3Cl)n2)CCn2nc(C3CC3)cc21 [Example 306, (S)—N-(2-cyclopropyl-4-methyl-5-oxo-5,6,7,8-tetrahydro-4H-pyrazolo[1,5-a][1,3]diazepin-6-yl)-1-(2,3-dichlorobenzyl)-1H-1,2,4-triazole-3-carboxamide]	0.0146 µM
Cc1cc2n(n1)CC[C@H](NC(=O)c1ncn(CC3(C)CC3)n1)C(=O)N2C [Example 289, (S)—N-(2,4-dimethyl-5-oxo-5,6,7,8-tetrahydro-4H-pyrazolo[1,5-a][1,3]diazepin-6-yl)-1-((1-methylcyclopropyl)methyl)-1H-1,2,4-triazole-3-carboxamide]	0.395 µM
CN1C(=O)[C@@H](NC(=O)c2nnc(Cc3ccccc3)o2)CCn2nc(C3CC3)cc21 [Example 282, (S)-5-benzyl-N-(2-cyclopropyl-4-methyl-5-oxo-5,6,7,8-tetrahydro-4H-pyrazolo[1,5-a][1,3]diazepin-6-yl)-1,3,4-oxadiazole-2-carboxamide]	0.0594 µM

Same assay, conditions: scale-up batches (Examples A-C); apparent Ki (Morrison tight-binding fit); 50 nM RIP1 kinase domain, 50 uM ATP; read-out: Ki

SMILES	Ki
CN1C(=O)[C@@H](NC(=O)c2ncn(Cc3ccccc3)n2)CCn2nc(C3CC3)cc21 [Example A, (S)-1-benzyl-N-(2-cyclopropyl-4-methyl-5-oxo-5,6,7,8-tetrahydro-4H-pyrazolo[1,5-a][1,3]diazepin-6-yl)-1H-1,2,4-triazole-3-carboxamide]	0.016 µM

Same assay, conditions: tight-binding apparent inhibition constant; human RIP1 kinase domain (2-375) 50 nM, 50 uM ATP, 2 hours; read-out: Ki

SMILES	Ki
Cc1cc2n(n1)CC[C@H](NC(=O)c1ncc3c(n1)C1(CCCC1)OC3)C(=O)N2C [Example 552, N-[(6S)-2,4-dimethyl-5-oxo-7,8-dihydro-6H-pyrazolo[1,5-a][1,3]diazepin-6-yl]spiro[5H-furo[3,4-d]pyrimidine-7,1′-cyclopentane]-2-carboxamide]	0.11 µM
CN1C(=O)[C@@H](NC(=O)c2nc3n(n2)C(c2nccn2C)CC3)COc2ccccc21 (stereo partly drawn) [Example 361, 5-(1-methylimidazol-2-yl)-N-[(3S)-5-methyl-4-oxo-2,3-dihydro-1,5-benzoxazepin-3-yl]-6,7-dihydro-5H-pyrrolo[1,2-b][1,2,4]triazole-2-carboxamide]	0.511 µM
CN1C(=O)[C@@H](NC(=O)c2nc3n(n2)[C@H](c2ccccc2)CC3)COc2ccccc21 (single isomer, unassigned) [Example 613]	0.071 µM
CN1C(=O)C(NC(=O)c2ncn(Cc3ccccc3)n2)CCn2nc(C(C)(F)F)cc21 (racemic) [Example 371, 1-benzyl-N-[2-(1,1-difluoroethyl)-4-methyl-5-oxo-7,8-dihydro-6H-pyrazolo[1,5-a][1,3]diazepin-6-yl]-1,2,4-triazole-3-carboxamide]	0.1 µM
Cc1cccnc1Cn1cnc(C(=O)N[C@H]2CCn3nc(C4CC4)cc3N(C)C2=O)n1 [Example 648]	0.28 µM
CN1C(=O)[C@@H](NC(=O)c2cc3c(cn2)COC32CCCOC2)COc2ccccc21 (stereo partly drawn) [Example 489, N-[(3S)-5-methyl-4-oxo-2,3-dihydro-1,5-benzoxazepin-3-yl]spiro[3H-furo[3,4-c]pyridine-1,3′-tetrahydropyran]-6-carboxamide]	0.094 µM
O=C(N[C@H]1COc2cc(F)cc(F)c2NC1=O)c1ncc2c(n1)C1(CCC1)OC2 [Example 617, N-[(3S)-6,8-difluoro-4-oxo-3,5-dihydro-2H-1,5-benzoxazepin-3-yl]spiro[5H-furo[3,4-d]pyrimidine-7,1′-cyclobutane]-2-carboxamide]	0.011 µM
Cc1cn2c(n1)N(C)C(=O)[C@H](NC(=O)c1ncn(Cc3ccccc3F)n1)CC2 [Example 659, 1-[(2-fluorophenyl)methyl]-N-(7R)-2,9-dimethyl-8-oxo-6,7-dihydro-5H-imidazo[1,2-a][1,3]diazepin-7-yl-1,2,4-triazole-3-carboxamide]	0.035 µM
CN1C(=O)[C@@H](NC(=O)c2ncc3cnn(-c4ccccn4)c3n2)COc2ccccc21 [Example 631, 1-(2-pyridyl)-N-[(3S)-5-methyl-4-oxo-2,3-dihydro-1,5-benzoxazepin-3-yl]pyrazolo[3,4-d]pyrimidine-6-carboxamide]	0.16 µM
Cc1cc2n(n1)CC[C@H](NC(=O)c1ncc3c(n1)C1(CCOC1)OC3)C(=O)N2C (stereo partly drawn) [Example 551, N-[(6S)-2,4-dimethyl-5-oxo-7,8-dihydro-6H-pyrazolo[1,5-a][1,3]diazepin-6-yl]spiro[5H-furo[3,4-d]pyrimidine-7,3′-tetrahydrofuran]-2-carboxamide]	0.96 µM
CN1C(=O)[C@@H](NC(=O)c2nc3n(n2)C(c2cc(F)ccc2F)CCC3)CCn2nccc21 (stereo partly drawn) [Example 388, 5-(2,5-difluorophenyl)-N—((S)-4-methyl-5-oxo-5,6,7,8-tetrahydro-4H-pyrazolo[1,5-a][1,3]diazepin-6-yl)-5,6,7,8-tetrahydro-[1,2,4]triazolo[1,5-a]pyridine-2-carboxamide]	0.124 µM
CN1C(=O)[C@@H](NC(=O)c2nc3n(n2)[C@@H](c2cnn(C)c2)CCC3)CCn2nccc21 (single isomer, unassigned) [Example 404]	0.318 µM
Cc1cc2n(n1)CC[C@H](NC(=O)c1nc3n(n1)[C@H](c1ccccc1F)CC3)C(=O)N2C [Example 667, (5S)-5-(2-fluorophenyl)-N-[(6S)-2,4-dimethyl-5-oxo-7,8-dihydro-6H-pyrazolo[1,5-a][1,3]diazepin-6-yl]-6,7-dihydro-5H-pyrrolo[1,2-b][1,2,4]triazole-2-carboxamide]	0.53 µM
CN1C(=O)[C@@H](NC(=O)c2ncn(Cc3ccccc3)n2)CCn2nc([C@H]3CC3(F)F)cc21 (stereo in doubt) [Example 679, 1-benzyl-N-[rac-(6S)-4-methyl-5-oxo-2-[rac-(1R)-2,2-difluorocyclopropyl]-7,8-dihydro-6H-pyrazolo[1,5-a] [1,3diazepin-6-yl]-1,2,4-triazole-3-carboxamide]	0.0216 µM
